According to publication doi:10.1101/2024.02.29.582594, “Hachiman is a genome integrity sensor” (bioRxiv, 2024):

Biological target: T1, HamB (Escherichia coli, UniProt A0A426EXV0)
T1 construct: gene DU321_04165; full-length HamB alone, N-terminal 10xHis-MBP-TEV, tag cut with TEV; expressed in E. coli BL21-AI
T1 sequence (A0A426EXV0 1-1174): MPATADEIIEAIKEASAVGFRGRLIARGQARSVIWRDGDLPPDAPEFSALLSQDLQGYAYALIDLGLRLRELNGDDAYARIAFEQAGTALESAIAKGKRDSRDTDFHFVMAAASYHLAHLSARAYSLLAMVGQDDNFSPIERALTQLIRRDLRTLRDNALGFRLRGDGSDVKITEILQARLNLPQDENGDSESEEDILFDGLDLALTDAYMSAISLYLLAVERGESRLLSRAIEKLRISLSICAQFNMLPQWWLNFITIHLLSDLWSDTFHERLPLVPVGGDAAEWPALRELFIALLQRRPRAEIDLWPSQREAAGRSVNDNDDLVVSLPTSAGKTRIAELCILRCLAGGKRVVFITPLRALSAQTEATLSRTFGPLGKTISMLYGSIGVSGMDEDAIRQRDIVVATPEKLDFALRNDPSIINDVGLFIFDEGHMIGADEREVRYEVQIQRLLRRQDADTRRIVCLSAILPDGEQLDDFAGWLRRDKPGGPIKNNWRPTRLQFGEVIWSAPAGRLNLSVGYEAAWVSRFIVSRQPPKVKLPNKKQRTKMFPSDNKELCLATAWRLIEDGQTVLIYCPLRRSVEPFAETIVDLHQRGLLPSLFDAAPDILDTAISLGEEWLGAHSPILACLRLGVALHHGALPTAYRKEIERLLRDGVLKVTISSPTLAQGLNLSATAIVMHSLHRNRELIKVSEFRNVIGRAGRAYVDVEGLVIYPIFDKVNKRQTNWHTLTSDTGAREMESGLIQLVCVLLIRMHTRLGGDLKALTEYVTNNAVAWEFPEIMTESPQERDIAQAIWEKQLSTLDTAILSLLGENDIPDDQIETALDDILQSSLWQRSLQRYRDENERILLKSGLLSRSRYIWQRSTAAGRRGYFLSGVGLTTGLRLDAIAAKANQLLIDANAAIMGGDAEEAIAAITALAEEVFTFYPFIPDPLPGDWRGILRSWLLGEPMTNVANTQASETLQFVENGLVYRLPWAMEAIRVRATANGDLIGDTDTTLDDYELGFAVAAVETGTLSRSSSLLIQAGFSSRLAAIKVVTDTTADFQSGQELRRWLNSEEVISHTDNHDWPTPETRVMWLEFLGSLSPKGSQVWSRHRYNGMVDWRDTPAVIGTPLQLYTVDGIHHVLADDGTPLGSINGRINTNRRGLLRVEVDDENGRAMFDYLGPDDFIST
Assay: malachite green phosphate release assay
Assay type: biochemical
Details: 40 nM HamB, 100 nM ssDNA, 1 mM ATP, 2 mM MgSO4, pH 8.8, 37 °C, 30 min

Nc1ncnc2c1ncn2[C@@H]1O[C@H](COP(=O)(O)OP(=O)(O)OP(=O)(O)O)[C@@H](O)[C@H]1O [ATP] was tested, and the “malachite green phosphate release assay” value was “we found strong HamB ATPase activity in the presence of single-stranded DNA”.
